Data set [1] is described as follows: Mouse plasma stability. Type of data set: in vitro ADME. Particulars: read-out: Mouse plasma t1/2.
Data set [2] concerns HCT116 (human, colon). As to the kind of experiment: MTT cytotoxicity HCT116. Type of data set: cell-based. Particulars: HCT-116, 72 h, n = 3. How it is done: (§1) All cell types were cultivated at 37 °C with 5% CO2. HepG2, HEK293, HCT116, CHO-K1, HeLa-CCL-2 and Huh-7.5 were purchased from ATCC. The respective cell media (Gibco) were supplemented with 10% FBS (Gibco) before usage. Cells were used between passages #5 and #30. To obtain biological repeats, cells were split separately for at least two passages.
(§2) Cells were washed with PBS and 0.5 mL trypsin was added. Afterwards, cells were incubated for 5 min before adding 10 mL medium containing 10% FBS. Per well, 120 µL cell suspension (5 × 10^4 cells/mL) was seeded in transparent 96-well cell bind plates and incubated for 2 h (37 °C, 5% CO2). A dilution series (1:3) of test compounds was prepared in respective media containing 10% FBS and added (60 µL) to the prepared cell plate. Cells were incubated for a further 72 h (37 °C, 5% CO2). Next, 20 µL MTT (5 mg/mL in PBS) was added to each well and incubated for 2 h (37 °C, 5% CO2). The wells were emptied and 100 µL isopropanol/10 N HCl (1000:4) per well was added.
(§3) The plates were analyzed by measuring the absorbance at 570 nm (plate reader Infinite® 200 Pro, Tecan). After normalization of data to the respective solvent controls, the calculated percentage of growth inhibition was plotted using GraphPad Prism software (version 10.0.2).

Data set [3] can be described thus: physchem. Conditions: zebrafish embryo incubation medium, aqueous buffer, kinetic from dmso stock.
The subject of data set [4] is U-2 OS cells. Nature of the data set: Mitochondrial superoxide formation (MitoSOX Red). Type of data set: cell-based, human. Conditions: n = 6. The protocol: CYS was tested for its potential to induce oxidative stress in U-2 OS cells. Therefore, 120 µL of a cell suspension in McCoy’s (+10% FBS) containing 5 × 10^4 cells/mL were seeded into black 96-well imaging plate (BD Falcon). The plates were incubated for two days (37 °C, 5% CO2) until the cells reached approximately 70% confluence. Subsequently, the cells were washed with HBSS buffer, prior to adding CYS (20 µM) and the ROS inducer menadione (50 µM) as positive control, along with the staining solution (HBSS, calcium, magnesium, 5 µM MitoSOX red and 10 µg/mL Hoechst (Thermo)). To check for ROS protective properties, menadione (50 µM) was added directly to the staining solution. […] Afterwards, the cells were washed twice with HBSS. The cells were imaged using an automated fluorescence microscope (Celldiscoverer 7, Zeiss) (excitation: […]) to analyze the fluorescence intensity of the superoxide tracker MitoSOX red. The experiment was carried out with six replicates per condition. Quantification was done by high-content image analysis using the ZEN software (version 3.4, blue edition, Zeiss). Data presentation was done using GraphPad Prism (version 10.0.3) with ordinary one-way ANOVA including multiple comparisons to the control group for statistical analysis of the sample without ROS induction via menadione in the staining solution. Multiple unpaired t test was used to compare samples for ROS protective properties, which were incubated with menadione in the staining solution.

For data set [5], the system named is U2OS (human, osteosarcoma). Nature of the data set: MTT cytotoxicity U2OS. Format: cell-based. Particulars: 72 h, n = 3. How it is done: as §2, §3
Data set [6] in a line: Metabolic stability in mouse hepatocytes. Type of data set: in vitro ADME. The protocol: For the evaluation of combined phase I and phase II metabolic stability, the compound (1 μM) was incubated with 0.25 × 10^6 cells/mL of pooled mouse hepatocytes (Xenotech, Kansas City, USA). Cells were thawed in Leibovitz’s L-15 medium without phenol red (ThermoFisher Scientific, Waltham, USA). Briefly, cells were transferred into 50 mL of medium, followed by centrifugation at 55 g for 6 min. Supernatant was discarded, and the cell count was determined after gently resuspending the cell pellet in 1mL of medium. Hepatocytes were diluted to 0.5 × 10^6 cells/mL and incubated at 37 °C, 700 rpm for 10 min, to achieve the desired final cell count after addition of an equal volume of test compounds in medium, leading to a final test concentration of 1 µM at 1% DMSO. […] For the determination of metabolism in the presence of cobicistat, this drug was added together with test compounds in the desired concentration range. The metabolic stability of testosterone, verapamil, ketoconazole and 7-hydroxycoumarine were determined in parallel to confirm the enzymatic activity of mouse hepatocytes. […] Concentration of the remaining test compound at the different time points was analyzed by HPLC-MS/MS (Vanquish Flex coupled to a TSQ Altis Plus, Thermo Fisher, Dreieich, Germany) and used to determine half-life (t1/2). Intrinsic clearance was calculated as follows:2 CLintµL/min×10^6cells=Incubation volumeµL×ln(2)/Cells in incubation mixture[10^6]×t1/2
For metabolite identification studies, test compounds were incubated at 10 µM final concentration and samples were analyzed using HPLC-HRMS (Ultimate 3000 coupled to a Q Exactive Focus, Thermo Fisher, Dreieich, Germany). […] Blank samples using DMSO were run in parallel for background subtraction. Sample processing for metabolite identification was performed using Compound Discoverer 3.2 (Thermo Fisher, Dreieich, Germany). Metabolites were identified based on mass shifts and feasibility of the metabolic reaction, also in view of MS peak intensities over time.

The nature of data set [7]: Metabolic stability in mouse liver microsomes. Format: in vitro ADME. Particulars: pooled mouse liver microsomes, 0.5 mg/mL microsomes, NADPH. The protocol: The metabolic stability of testosterone, verapamil and ketoconazole was determined in parallel to confirm the enzymatic activity of mouse liver microsomes. For combination experiments, cobicistat was added to the incubation mixture together with test compounds. […] Concentration of the remaining test compound at the different time points was analyzed by HPLC-MS/MS (Vanquish Flex coupled to a TSQ Altis Plus, Thermo Fisher, Dreieich, Germany) and used to determine half-life (t1/2).

Data set [8] relates to HepG2 (human, liver). As to the kind of experiment: MTT cytotoxicity HepG2. Particulars: 72 h, n = 3. Type of data set: cell-based. The protocol: as §1, §2, §3
The target in data set [9] is T1, human DNA topoisomerase IIα (TOP2A) (Homo sapiens, UniProt P11388).
T1 construct: purchased Inspiralis
Nature of the data set: human topoisomerase II alpha decatenation assay. Format: biochemical. Particulars: n = 3, read-out: IC50 against TOP2A.
Procedure: Inhibition of topoisomerase activity was examined using the human topoisomerase II alpha decatenation assay kit (Inspiralis) as indicated by the manufacturer. Briefly, a compound dilution series was prepared in DMSO. Water, dilution buffer, assay buffer, plasmid and enzyme were mixed with the compound solution and incubated at 37 °C for 30 min. A positive control (100% activity) was prepared without the compound, and a negative control (0% activity) was prepared without the compound and the enzyme. The reaction was stopped by adding gSTEB-buffer and chloroform/isoamylalcohol (24:1 v/v). The samples were vortexed and centrifuged before running gel electrophoresis. The gel was stained with ethidium bromide and imaged using a Fusion Fx gel imager (Vilber Lourmat). Subsequent analysis was done using ImageJ and GraphPad Prism (Version 10.0.2).

Data set [10] is described as follows: Mouse plasma protein binding. Conditions: read-out: Mouse PPB (converted). Type of data set: in vitro ADME.
Data set [11] deals with HCV pseudoparticle (HCVpp; JFH1 genotype 2a, Con1 genotype 1b) entry into Huh-7.5. As to the kind of experiment: HCVpp cell entry assay. Particulars: Hepatitis C virus, GETYPE1B|GETYPE2A, Huh7.5, 72 h, read-out: concentration of 50% entry inhibition.
Data set [12] has as its system HEK293 (human, kidney). As to the kind of experiment: MTT cytotoxicity HEK293. Type of data set: cell-based. Conditions: HEK293, MTT, 72 h, n = 3, read-out: IC50 HEK293 (human, kidney). The protocol:
as §1, §2, §3

Data set [13] relates to HeLa (human, cervix). As to the kind of experiment: MTT cytotoxicity HeLa. Particulars: 72 h, n = 3. Type of data set: cell-based. How it is done: as §1, §2, §3
Details of data set [14]: method as in PMID 26437376, PMID 24041792. Conditions: cited from earlier work.
Data set [15] concerns SCARB1. More on the design: method as in PMID 19815817. Conditions: previous in vivo mouse studies; cited from earlier work.

These results are taken from article PMC13267113 (npj Drug Discovery, 2025).

Values after ≈ are worked out from the molar mass of the structure shown.

T1 sequence (P11388 whole entry): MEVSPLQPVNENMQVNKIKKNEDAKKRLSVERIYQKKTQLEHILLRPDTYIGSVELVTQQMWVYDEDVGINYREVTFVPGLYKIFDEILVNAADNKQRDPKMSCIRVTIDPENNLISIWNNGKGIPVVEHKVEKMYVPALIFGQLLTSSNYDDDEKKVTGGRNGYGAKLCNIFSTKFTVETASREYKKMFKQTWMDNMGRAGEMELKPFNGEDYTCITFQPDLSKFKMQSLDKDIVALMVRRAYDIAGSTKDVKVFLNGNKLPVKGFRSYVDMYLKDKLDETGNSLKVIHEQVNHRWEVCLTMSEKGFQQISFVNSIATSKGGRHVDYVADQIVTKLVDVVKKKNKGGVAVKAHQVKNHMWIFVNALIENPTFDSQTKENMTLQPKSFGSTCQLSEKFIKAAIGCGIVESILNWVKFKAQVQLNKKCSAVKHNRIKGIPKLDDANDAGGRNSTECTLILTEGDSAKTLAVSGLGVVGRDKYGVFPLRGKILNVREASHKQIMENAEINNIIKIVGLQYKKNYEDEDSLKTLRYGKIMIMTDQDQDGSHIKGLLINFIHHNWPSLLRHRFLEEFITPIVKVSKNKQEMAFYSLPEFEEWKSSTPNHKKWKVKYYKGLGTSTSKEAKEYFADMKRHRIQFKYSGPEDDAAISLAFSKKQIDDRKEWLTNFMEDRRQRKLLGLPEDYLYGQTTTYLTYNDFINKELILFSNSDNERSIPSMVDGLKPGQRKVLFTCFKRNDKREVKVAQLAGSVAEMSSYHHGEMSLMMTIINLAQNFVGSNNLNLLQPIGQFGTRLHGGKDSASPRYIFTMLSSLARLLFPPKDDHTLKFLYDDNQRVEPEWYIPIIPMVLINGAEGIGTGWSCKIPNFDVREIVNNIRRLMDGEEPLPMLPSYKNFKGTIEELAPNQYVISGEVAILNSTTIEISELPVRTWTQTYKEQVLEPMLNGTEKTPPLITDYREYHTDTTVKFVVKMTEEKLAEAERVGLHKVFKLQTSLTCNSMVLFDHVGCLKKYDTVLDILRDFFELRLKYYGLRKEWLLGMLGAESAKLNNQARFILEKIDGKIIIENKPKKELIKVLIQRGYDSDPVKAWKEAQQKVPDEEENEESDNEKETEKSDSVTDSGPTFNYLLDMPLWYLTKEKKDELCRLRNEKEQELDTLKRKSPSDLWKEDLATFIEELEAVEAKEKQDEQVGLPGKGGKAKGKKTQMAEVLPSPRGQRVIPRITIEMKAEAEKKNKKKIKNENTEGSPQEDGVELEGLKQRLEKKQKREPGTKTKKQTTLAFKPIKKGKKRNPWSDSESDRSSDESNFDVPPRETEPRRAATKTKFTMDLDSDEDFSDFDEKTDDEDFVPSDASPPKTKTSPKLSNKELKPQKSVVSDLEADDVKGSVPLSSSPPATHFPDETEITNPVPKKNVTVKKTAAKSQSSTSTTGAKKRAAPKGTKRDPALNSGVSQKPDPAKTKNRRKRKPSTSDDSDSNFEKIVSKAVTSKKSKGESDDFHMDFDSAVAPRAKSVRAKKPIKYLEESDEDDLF

With `C=CC1CC1(NC(=O)C12CC(NC(=O)c3ccc(C#N)cc3)(C1)C2)C(=O)Nc1ccc(C(=O)Nc2ccc(C(=O)Nc3ccc(C(=O)O)cc3)c(O)c2OC(C)C)cc1` (stereo not shown) [Cysto-180], the half-life in data set [1] was over 240 min. Also, the IC50 in data set [2] is over 20 µM; in [5], over 20 µM; in data set [8], over 20 µM; in data set [9], 12.2 ± 0.63 µM; in [11], about 3.3 µM; in data set [12], over 20 µM. Also, the IC50 in [13] was over 37 µM. Moreover, in data set [3], the solubility (usually the dissolved amount per volume that the medium holds) is 200 µM (≈ 159 µg/mL). Further, the “basal superoxide radical levels vs DMSO control” value in data set [4] (20 µM, MitoSOX Red, no menadione) is listed as “decrease of superoxide radical levels”. Further, the “menadione-induced superoxide formation on co-treatment” value in data set [4] (CYS 20 µM + menadione 50 µM) was “no significant increase of superoxide”. The major metabolic pathways entry in data set [6] (metabolite identification, 10 µM, mouse hepatocytes) is “amide bond hydrolysis and glucuronidation”. For the same compound, the hepatocyte CLint (as a rule, the rate of metabolic loss divided by the concentration) at 1 µM in [6] (mouse, pooled mouse hepatocytes, 1 μM, 0.25 × 10^6 cells/mL) is 26 µL/min/1e6 cells. Further, the half-life at 1 µM in data set [6] (mouse, pooled mouse hepatocytes, 1 μM, 0.25 × 10^6 cells/mL, read-out: Mouse Hepatocytes t1/2) is 41 ± 16 min; in data set [7] (read-out: MLM t1/2), over 120 min. Also, the microsomal CLint at 1 μM in data set [7] (read-out: MLM Clint) is under 11.6 µL/min/mg. Moreover, the fraction unbound in data set [10] is 0.041.
For the compound `COc1c(NC(=O)C(=O)c2ccc(OCCN3CCOCC3)c3ccccc23)cc(C(C)(C)C)cc1NS(C)(=O)=O` [ITX5061], the safety in humans result in [14] was “safety in humans has been demonstrated”. For the same compound, in data set [15], the “effect of SCARB1 suppression in mice” value is “increased beneficial HDL cholesterol levels and partially reduced atherosclerotic lesions”.
